# Results published in US9364455B2, “Combination of a prostaglandin receptor agonist and an MC1R receptor agonist for the treatment and/or prevention of pigmentation disorders” (GALDERMA RESEARCH & DEVELOPMENT, priority 2011, dated 2016).
# System: tail skin of SKH2 mice
# Test: Propigmenting activity by topical application on the tail of SKH2 mice (clinical pigmentation score, luminance by colorimeter)
# Type: in vivo
# Settings: 5 days per week for 57 days, 0.01% travoprost, MC1R agonist A at 7%, B at 8%, compared with carrier group (combinations also with 0.01% travoprost alone)
# Text: In mice, melanocytes are not present in the epidermis of the areas covered with hair and are mainly present in the hair follicles. The tail skin of SKH2 mice is pigmented, which is of particular interest for evaluating the effect of topical agents on skin pigmentation. The pigmentation modifications induced by these topical compounds can be quantified by various means, for instance the clinical score of the pigmentation and the measurement of the tail color using a colorimeter. The evaluation of the propigmenting activity of 0.01% travoprost alone or in combination with MC1R receptor agonists: compound A at 7% or compound B at 8%, is carried out by topical application on the tail of SKH2 mice for 57 days. The treatment is carried out 5 days per week for 57 days. 20 μl of the test product diluted in the carrier 145 are applied to the tail. In the case of the combinations, 20 μl of the MC1R agonist solution are applied after the treatment with 20 μl of the 0.01% travoprost solution. The clinical score of the animals is recorded once a week before irradiation; the pigmentation is evaluated by virtue of a score on a scale of 0 to 4. […]
smiles,measurement,value
CC(C)OC(=O)CCC/C=C\C[C@@H]1[C@@H](/C=C/[C@@H](O)COc2cccc(C(F)(F)F)c2)[C@H](O)C[C@@H]1O [travoprost],clinical score for pigmentation (natural pigmentation of the tail skin),moderately increases the natural pigmentation of the tail skin as early as day 36
